# Patent US11986540B2, “Compositions including pafolacianine for the identification of malignant lesions” (ON TARGET LABORATORIES, LLC., priority 2022, dated 2024)
# Read-outs that look alike come from different tables or passages of the source.
# Assay: Repeat once-weekly IV dose toxicokinetics in dogs
# Assay type: in vivo
# Settings: dog, in vivo, iv; for Vd: read-out: Vss; for half-life: read-out: T1/2 (converted)
# Procedure: Overall, drug concentrations increased with ascending dose, noting that the mean profiles at the two highest dose levels were overlapping. Systemic exposure (AUClast) to pafolacianine was approximately dose-proportional over the range of doses administered (0.9 to 13.9 mg/kg) and within the observed variability (Table 5). […] On both Day 0 and Day 13, CL was slow (relative to hepatic blood flow) and Vss was moderate. Mean T1/2 ranged from approximately 13 to 18 hours.
# [1] = female, 9.3 mg/kg, dogs F, 9.3 mg/kg once-weekly IV, Day 13
# [2] = female, 13.9 mg/kg, dogs F, 13.9 mg/kg once-weekly IV, Day 0
# [3] = female, 13.9 mg/kg, dogs F, 13.9 mg/kg once-weekly IV, Day 13
# [4] = male, 0.9 mg/kg, dogs M, 0.9 mg/kg once-weekly IV, Day 0
# [5] = male, 0.9 mg/kg, dogs M, 0.9 mg/kg once-weekly IV, Day 13
# [6] = male, 9.3 mg/kg, dogs M, 9.3 mg/kg once-weekly IV, Day 0
# [7] = male, 9.3 mg/kg, dogs M, 9.3 mg/kg once-weekly IV, Day 13
# [8] = male, 13.9 mg/kg, dogs M, 13.9 mg/kg once-weekly IV, Day 0
# [9] = male, 13.9 mg/kg, dogs M, 13.9 mg/kg once-weekly IV, Day 13
structure (smiles),measurement,setting,value
CC1(C)C(=CC=C2CCCC(C=CC3=[N+](CCCCS(=O)(=O)[O-])c4ccc(S(=O)(=O)O)cc4C3(C)C)=C2Oc2ccc(CC(NC(=O)c3ccc(NCc4cnc5nc(N)[nH]c(=O)c5n4)cc3)C(=O)O)cc2)N(CCCCS(=O)(=O)O)c2ccc(S(=O)(=O)O)cc21 (stereo not shown) [pafolacianine],Vd,"female, 9.3 mg/kg, dogs F, 9.3 mg/kg once-weekly IV, Day 0",2.38 L/kg
same,AUC(0-inf),[1],76600 ng·h/mL
same,AUC(0-t),[1],57700 ng·h/mL
same,C0,[1],67.8 µg/mL
same,clearance,[1],2.11 mL/min/kg
same,half-life,[1],14.3 h
same,Vd,[1],1.94 L/kg
same,AUC(0-inf),[2],109000 ng·h/mL
same,AUC(0-t),[2],79800 ng·h/mL
same,C0,[2],79.6 µg/mL
same,clearance,[2],2.15 mL/min/kg
same,half-life,[2],15.3 h
same,Vd,[2],2.2 L/kg
same,AUC(0-inf),[3],129000 ng·h/mL
same,AUC(0-t),[3],94700 ng·h/mL
same,C0,[3],104 µg/mL
same,clearance,[3],1.81 mL/min/kg
same,half-life,[3],15.3 h
same,Vd,[3],1.83 L/kg
same,AUC(0-inf),[4],6400 ng·h/mL
same,AUC(0-t),[4],4740 ng·h/mL
same,C0,[4],4.66 µg/mL
same,clearance,[4],2.39 mL/min/kg
same,half-life,[4],14.8 h
same,Vd,[4],2.31 L/kg
same,AUC(0-inf),[5],7360 ng·h/mL
same,AUC(0-t),[5],5070 ng·h/mL
same,C0,[5],5.73 µg/mL
same,clearance,[5],2.09 mL/min/kg
same,half-life,[5],17.6 h
same,Vd,[5],2.42 L/kg
same,AUC(0-inf),[6],81200 ng·h/mL
same,AUC(0-t),[6],58000 ng·h/mL
same,C0,[6],62.1 µg/mL
same,clearance,[6],1.92 mL/min/kg
same,half-life,[6],16.4 h
same,Vd,[6],2.1 L/kg
same,AUC(0-inf),[7],85100 ng·h/mL
same,AUC(0-t),[7],65400 ng·h/mL
same,C0,[7],72.6 µg/mL
same,clearance,[7],1.84 mL/min/kg
same,half-life,[7],13.3 h
same,Vd,[7],1.6 L/kg
same,AUC(0-inf),[8],110000 ng·h/mL
same,AUC(0-t),[8],78500 ng·h/mL
same,C0,[8],81.8 µg/mL
same,clearance,[8],2.13 mL/min/kg
same,half-life,[8],16.2 h
same,Vd,[8],2.35 L/kg
same,AUC(0-inf),[9],117000 ng·h/mL
same,AUC(0-t),[9],85900 ng·h/mL
same,C0,[9],108 µg/mL
same,clearance,[9],2 mL/min/kg
same,half-life,[9],15 h
same,Vd,[9],2.02 L/kg
